Patent US5716934A, “Eck receptor ligands” (Amgen Inc., priority 1995, dated 1998)

Legend:
[1] = tested on: eck receptor on CHO 19.32 cells; experiment: Chemical crosslinking of 125I-EBP to CHO 19.32 cells; assay type: binding, human
Experimental: (§1) CHO-cell derived EBP was radiolabelled with ^125 I as described below for use in crosslinking and binding studies. Five or 10 μg of EBP in 0.1M sodium phosphate (NAPO4, pH 8.0) was added to 5 mCi of dried ^125 I-Bolton-Hunter reagent (NEN, Boston, Mass.) in a final volume of 50 μl or 100 μl, and the tube was incubated at 4° C. for 1 h. The reaction was terminated by addition of 0.3 ml of 0.2M glycine in 0.1M NaPO4, followed by incubation at 4° C. for 5 min. Labeled protein was separated from unincorporated reagent by gel filtration chromatography on a 10 ml PD10 column containing Sephadex G-25M (Pharmacia) equilibrated with 0.1M NaPO4 --0.25% gelatin. Specific activity of the ^125 I-EBP ranged from 4 to 19 cpm/pg.
(§2) Crosslinking of EBP to either LIM 2405 (a cell line naturally expressing the eck receptor) or CHO 19.32 (Chinese hamster ovary cells transfected with a clone of the full length eck receptor) was carried out as follows. CHO cells were grown in suspension to a density of approximately 5×10^5 cells/ml in media. LIM2405 cells were grown in RPMI 1640 media containing 5% FCS, 1 μg/ml insulin, 1 μg/ml hydrocortisone, 10 μM thioglycerol and 2 mM L-glutamine to approximately 90% confluency in T-175 flasks and removed by scraping for use in the crosslinking studies. Cells were spun down and resuspended in PBS to give a single cell suspension. For each crosslinking reaction, 2×10^6 cells were mixed with approximately 20 ng of ^125 I-EBP in a total volume of 1 ml. This mixture was incubated at 4° C. for 1 h to allow binding of EBP to cell surface receptors before the addition of 20 μl of 10 mM disuccinimidyl suberate (DSS) as a crosslinking agent. Cells were then washed three times in binding buffer, collected by centrifugation, and the amount of radioactivity incorporated into the cell pellets was counted to assess the degree of crosslinking. The cells were then lysed by treatment with 100 ul PBS, 1 mM EDTA, 0.5% NP-40, 1 mM phenylmethylsulfonyl fluoride (PMSF, Sigma, St. Louis, Mo.) for 10 min at 4° C. […]

[2] = tested on: eck receptor; experiment: as above; assay type: binding, human; conditions: untransfected cells (CHOd-)
Experimental: as §1, §2

Substance: CHO-EBP: recombinant EBP purified from supernatants of CHO cells transfected with the EBP gene; mainly EBP^1-150 and EBP^1-159
- competition for binding and crosslinking of 125I-rEBP ([1]; 50-fold molar excess): able to compete
- crosslinking to CHO 19.32 cells ([1]; CHO cells transfected with eck, DSS crosslinker): could be crosslinked
- crosslinking to untransfected CHO cells [2]: but not to the untransfected cells
